Laboratory results taken from the supplement of paper PMC10307832.

Columns and labels:
Test in all cases: relative viability (nuclei count vs DMSO), 5 days (fraction); higher = more cells survive
AZD5582 + Palbociclib = compound: C[C@@H](C(=O)N[C@@H](C1CCCCC1)C(=O)N2CCC[C@H]2C(=O)N[C@@H]3[C@@H](CC4=CC=CC=C34)OCC#CC#CCO[C@@H]5CC6=CC=CC=C6[C@@H]5NC(=O)[C@@H]7CCCN7C(=O)[C@H](C8CCCCC8)NC(=O)[C@H](C)NC)NC [AZD5582] + CC(=O)c1c(C)c2cnc(Nc3ccc(N4CCNCC4)cn3)nc2n(C2CCCC2)c1=O [Palbociclib] (partner 0.5 µM)
In short: (§1)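 For relative viability, nuclei counts in treated wells were divided by those in vehicle wells. Lung cancer cell lines had been pin-tool dosed in 1536-well plates the day after seeding and cultured for 5 days, then fixed and stained in one step (final 0.05% Triton X-100, 1% formaldehyde, 1 ug/ml Hoechst) and imaged at 4×. Doses were one drug alone or a fixed anchor-drug dose plus five library-drug doses (not always all listed) in √10 steps, and values are duplicate-plate medians.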

AZD5582 + Alpelisib = compound: C[C@@H](C(=O)N[C@@H](C1CCCCC1)C(=O)N2CCC[C@H]2C(=O)N[C@@H]3[C@@H](CC4=CC=CC=C34)OCC#CC#CCO[C@@H]5CC6=CC=CC=C6[C@@H]5NC(=O)[C@@H]7CCCN7C(=O)[C@H](C8CCCCC8)NC(=O)[C@H](C)NC)NC [AZD5582] + Cc1nc(NC(=O)N2CCC[C@H]2C(N)=O)sc1-c1ccnc(C(C)(C)C(F)(F)F)c1 [Alpelisib] (partner 2 µM)
In short: as §1

[1] = compound: Cn1nnc2c(C(N)=O)ncn2c1=O [Temozolomide] + CS(=O)(=O)N1CCN(Cc2cc3nc(-c4cccc5[nH]ncc45)nc(N4CCOCC4)c3s2)CC1 [Pictilisib] (partner 1 µM)
In short: as §1

[2] = compound: Cn1nnc2c(C(N)=O)ncn2c1=O [Temozolomide] + Nc1nc2[nH]cc(CCc3ccc(C(=O)N[C@@H](CCC(=O)O)C(=O)O)cc3)c2c(=O)[nH]1 [Pemetrexed] (partner 0.2 µM)
In short: as §1

Cell Line | relative viability (AZD5582 + Palbociclib; first compound 0.001581 µM) | relative viability (AZD5582 + Palbociclib; first compound 0.005 µM) | relative viability (AZD5582 + Palbociclib; first compound 0.01581 µM) | relative viability (AZD5582 + Palbociclib; first compound 0.05 µM) | relative viability (AZD5582 + Alpelisib; first compound 0.001581 µM) | relative viability (AZD5582 + Alpelisib; first compound 0.005 µM) | relative viability (AZD5582 + Alpelisib; first compound 0.01581 µM) | relative viability (AZD5582 + Alpelisib; first compound 0.05 µM) | relative viability ([1]; first compound 0.2 µM) | relative viability ([1]; first compound 0.6325 µM) | relative viability ([1]; first compound 2 µM) | relative viability ([1]; first compound 6.325 µM) | relative viability ([1]; first compound 20 µM) | relative viability ([2]; first compound 0.2 µM) | relative viability ([2]; first compound 0.6325 µM) | relative viability ([2]; first compound 2 µM) | relative viability ([2]; first compound 6.325 µM) | relative viability ([2]; first compound 20 µM)
LU99A | 0.455 | 0.465 | 0.412 | 0.534 | 0.554 | 0.594 | 0.499 | 0.611 | 0.325 | 0.351 | 0.324 | 0.343 | 0.335 | 0.208 | 0.179 | 0.175 | 0.185 | 0.252
SW 1573 | 0.352 | 0.451 | 0.402 | 0.407 | 0.856 | 0.705 | 0.673 | 1.01 | 0.595 | 0.517 | 0.517 | 0.483 | 0.428 | 0.907 | 0.833 | 0.845 | 0.867 | 0.846
COR-L23 | 0.238 | 0.329 | 0.269 | 0.305 | 0.73 | 0.801 | 0.799 | 0.875 | 1.01 | 0.771 | 0.961 | 0.829 | 0.715 | 0.188 | 0.211 | 0.19 | 0.184 | 0.217
NCI-H23 | 0.393 | 0.374 | 0.419 | 0.305 | 0.446 | 0.456 | 0.7 | 0.419 | 0.563 | 0.508 | 0.517 | 0.401 | 0.454 | 0.825 | 0.749 | 0.716 | 0.565 | 0.677
NCI-H1944 | 0.274 | 0.319 | 0.309 | 0.43 | 0.834 | 1.05 | 0.793 | 1.11 | 0.366 | 0.352 | 0.363 | 0.346 | 0.342 | 0.546 | 0.601 | 0.564 | 0.58 | 0.623
NCI-H322M | 0.526 | 0.521 | 0.456 | 0.605 | 0.796 | 1.03 | 0.515 | 0.889 | – | 0.555 | 0.545 | 0.483 | 0.363 | 0.56 | 0.591 | 0.635 | 0.499 | 0.536
EMC-BAC-2 | 0.472 | 0.527 | 0.503 | 0.513 | 0.702 | 0.628 | 0.721 | 0.316 | 0.535 | 0.596 | 0.587 | 0.497 | 0.495 | 0.468 | 0.445 | 0.485 | 0.415 | 0.509
NCI-H3122 | 0.197 | 0.185 | 0.181 | 0.143 | 0.774 | 0.858 | 0.836 | 0.307 | 0.521 | 0.657 | 0.59 | 0.57 | 0.553 | 0.187 | 0.205 | 0.188 | 0.196 | 0.193
NCI-H520 | 0.193 | 0.256 | 0.238 | 0.223 | 0.97 | 0.89 | 0.838 | 1.07 | 0.243 | 0.304 | 0.312 | 0.305 | 0.326 | 0.723 | 0.595 | 0.711 | 0.631 | 0.74
HARA | 0.257 | 0.275 | 0.233 | 0.318 | 0.75 | 0.783 | 0.866 | 0.701 | 0.376 | 0.484 | 0.603 | 0.438 | 0.256 | 0.203 | 0.228 | 0.269 | 0.2 | 0.273
NCI-H358 | 0.124 | 0.156 | 0.14 | 0.136 | 0.725 | 1.02 | 0.89 | 1.02 | 0.342 | 0.392 | 0.348 | 0.305 | 0.283 | 0.196 | 0.173 | 0.18 | 0.164 | 0.17
NCI-H2347 | 0.43 | 0.392 | 0.447 | 0.416 | 0.901 | 1.05 | 0.975 | 0.991 | 0.624 | 0.863 | 0.861 | 0.649 | 0.502 | 0.466 | 0.447 | 0.429 | 0.426 | 0.461
UMC-11 | 0.345 | 0.324 | 0.394 | 0.339 | 1.05 | 1.11 | 0.968 | 1.08 | 1.08 | 0.917 | 0.893 | 0.729 | 0.442 | 0.758 | 0.712 | 0.835 | 0.805 | 0.588
NCI-H2009 | 0.24 | 0.225 | 0.184 | 0.203 | 1.12 | 1.15 | 1.17 | 1.18 | 0.969 | 0.891 | 0.893 | 0.638 | 0.87 | 1.08 | 1.06 | 1.05 | 1.08 | 1.04
NCI-H1437 | 0.266 | 0.307 | 0.278 | 0.31 | 0.968 | 0.967 | 0.875 | 1.04 | 0.474 | 0.539 | 0.502 | 0.521 | 0.44 | 0.31 | 0.317 | 0.376 | 0.316 | 0.277
NCI-H647 | 0.26 | 0.39 | 0.394 | 0.387 | 0.957 | 0.943 | 1.19 | 1.11 | 0.419 | 0.444 | 0.406 | 0.272 | 0.216 | 0.169 | 0.17 | 0.2 | 0.146 | 0.122
NCI-H1395 | 0.578 | 0.688 | – | 0.76 | 1.08 | 1.19 | – | 1.39 | 0.554 | 0.631 | 0.719 | 0.612 | 0.572 | 0.931 | 0.983 | 1.03 | 0.769 | 0.754
